Reference: the NIST ThermoML archive (doi:10.1021/je060033f)
± gives the expanded uncertainty stated by the source.

Assay: activity coefficient (dimensionless); of the first substance listed, at infinite dilution; xn = mol fraction of the nth substance listed
Settings: 323.15 K; 101 kPa; Liquid; Chromatography; x1 = 0
`ClCCl` [dichloromethane] + C=CCn1cc[n+](C)c1.[Br-] showed an activity coefficient of 0.33 ± 0.03.
Work on `ClCCl` [dichloromethane] + CCCCCCCCCCCC[n+]1ccn(CCCB(O)O)c1.[Br-] yielded an activity coefficient of 0.34 ± 0.03.
Compound `ClCCl` [dichloromethane] + CCCCCCCCCC[n+]1ccn(CCCB(O)O)c1.[Br-] has an activity coefficient of 0.25 ± 0.03.
Work on `ClCCl` [dichloromethane] + CCCCCCCC[n+]1ccn(CCCB(O)O)c1.[Br-] yielded an activity coefficient of 0.41 ± 0.03.
In the case of `ClCCl` [dichloromethane] + C[n+]1ccn(CCCB(O)O)c1.[Br-], the activity coefficient is reported as 3.2 ± 0.22.
`CCOCC` [diethyl ether] + C=CC[n+]1ccn(CCCCCCCC)c1.[Br-] showed an activity coefficient of 4.18 ± 0.28.
For `CCOCC` [diethyl ether] + C=CC[n+]1ccn(CCCCCCCCCC)c1.[Br-], the activity coefficient was 3.54 ± 0.24.
Work on `CCOCC` [diethyl ether] + C=CC[n+]1ccn(CCCCCCCCCCCC)c1.[Br-] yielded an activity coefficient of 2.95 ± 0.2.
`CCOCC` [diethyl ether] + C=CCn1cc[n+](C)c1.[Br-] showed an activity coefficient of 11.4 ± 0.78.
With `CCO` [ethanol] + C=CC[n+]1ccn(CCCCCCCC)c1.[Br-] the activity coefficient was 0.27 ± 0.03.
`CCO` [ethanol] + C=CC[n+]1ccn(CCCCCCCCCC)c1.[Br-] gave an activity coefficient of 0.26 ± 0.03.
`CCO` [ethanol] + C=CC[n+]1ccn(CCCCCCCCCCCC)c1.[Br-] gave an activity coefficient of 0.23 ± 0.03.
For `CCO` [ethanol] + C=CCn1cc[n+](C)c1.[Br-], the activity coefficient was 0.27 ± 0.03.
`CCc1ccccc1` [ethylbenzene] + C=CC[n+]1ccn(CCCCCCCC)c1.[Br-] gave an activity coefficient of 2.56 ± 0.17.
Compound `CCc1ccccc1` [ethylbenzene] + C=CC[n+]1ccn(CCCCCCCCCC)c1.[Br-] has an activity coefficient of 2.54 ± 0.17.
With `CCc1ccccc1` [ethylbenzene] + C=CC[n+]1ccn(CCCCCCCCCCCC)c1.[Br-] the activity coefficient was 1.77 ± 0.12.
Work on `CCc1ccccc1` [ethylbenzene] + C=CCn1cc[n+](C)c1.[Br-] yielded an activity coefficient of 11.1 ± 0.76.
Work on `CCc1ccccc1` [ethylbenzene] + CCCCCCCCCCCC[n+]1ccn(CCCB(O)O)c1.[Br-] yielded an activity coefficient of 3.83 ± 0.26.
In the case of `CCc1ccccc1` [ethylbenzene] + CCCCCCCCCC[n+]1ccn(CCCB(O)O)c1.[Br-], the activity coefficient is reported as 2.37 ± 0.16.
For `CCc1ccccc1` [ethylbenzene] + CCCCCCCC[n+]1ccn(CCCB(O)O)c1.[Br-], the activity coefficient was 3.28 ± 0.22.
For `CCc1ccccc1` [ethylbenzene] + C[n+]1ccn(CCCB(O)O)c1.[Br-], the activity coefficient was 45.1 ± 3.1.
`CCCCCCC` [heptane] + C=CC[n+]1ccn(CCCCCCCC)c1.[Br-] gave an activity coefficient of 11.4 ± 0.78.
Compound `CCCCCCC` [heptane] + C=CC[n+]1ccn(CCCCCCCCCC)c1.[Br-] has an activity coefficient of 11.1 ± 0.76.
With `CCCCCCC` [heptane] + C=CC[n+]1ccn(CCCCCCCCCCCC)c1.[Br-] the activity coefficient was 5.32 ± 0.36.
`CCCCCCC` [heptane] + C=CCn1cc[n+](C)c1.[Br-] showed an activity coefficient of 49.6 ± 3.4.
With `CCCCCCC` [heptane] + CCCCCCCCCCCC[n+]1ccn(CCCB(O)O)c1.[Br-] the activity coefficient was 5.36 ± 0.37.
`CCCCCCC` [heptane] + CCCCCCCCCC[n+]1ccn(CCCB(O)O)c1.[Br-] gave an activity coefficient of 7.04 ± 0.48.
With `CCCCCCC` [heptane] + CCCCCCCC[n+]1ccn(CCCB(O)O)c1.[Br-] the activity coefficient was 20.2 ± 1.4.
For `CCCCCCC` [heptane] + C[n+]1ccn(CCCB(O)O)c1.[Br-], the activity coefficient was 77.6 ± 5.3.
In the case of `C=CCCCC` [hex-1-ene] + C=CC[n+]1ccn(CCCCCCCC)c1.[Br-], the activity coefficient is reported as 5.93 ± 0.4.
In the case of `C=CCCCC` [hex-1-ene] + C=CC[n+]1ccn(CCCCCCCCCC)c1.[Br-], the activity coefficient is reported as 5.89 ± 0.4.
`C=CCCCC` [hex-1-ene] + C=CC[n+]1ccn(CCCCCCCCCCCC)c1.[Br-] gave an activity coefficient of 3.47 ± 0.24.
With `C=CCCCC` [hex-1-ene] + C=CCn1cc[n+](C)c1.[Br-] the activity coefficient was 16.5 ± 1.1.
Work on `C=CCCCC` [hex-1-ene] + CCCCCCCCCCCC[n+]1ccn(CCCB(O)O)c1.[Br-] yielded an activity coefficient of 3.6 ± 0.25.
`C=CCCCC` [hex-1-ene] + CCCCCCCCCC[n+]1ccn(CCCB(O)O)c1.[Br-] gave an activity coefficient of 3.76 ± 0.26.
`C=CCCCC` [hex-1-ene] + CCCCCCCC[n+]1ccn(CCCB(O)O)c1.[Br-] gave an activity coefficient of 8.32 ± 0.57.
